Source: patent US10196363B2, “Dihydropyrimidin-2-one compounds and medical use thereof” (JAPAN TOBACCO INC., priority 2014, dated 2019)

How the values were obtained:
human RORγ = target: T1, human RORγ (Homo sapiens, UniProt P51449); experiment: In vitro assay of inhibitory effect against RORγ transcriptional activity (GAL4-hRORγ LBD luciferase reporter gene assay in CHO cells); format: cell-based; conditions: for EC50: GAL4-hRORγ LBD / pG5-Luc in CHO cells, 2 days incubation; for hRORγ luciferase activity, %-of-control: value in parentheses beside the > EC50 bound, vehicle-control 0.2% DMSO alone = 100%
T1 construct: human RORγ, from Ser253 to Lys518; expressed in transfected cells; host or cells: CHO cells (Chinese hamster ovary), transient co-transfection with pG5-Luc
T1 sequence (P51449 253-518): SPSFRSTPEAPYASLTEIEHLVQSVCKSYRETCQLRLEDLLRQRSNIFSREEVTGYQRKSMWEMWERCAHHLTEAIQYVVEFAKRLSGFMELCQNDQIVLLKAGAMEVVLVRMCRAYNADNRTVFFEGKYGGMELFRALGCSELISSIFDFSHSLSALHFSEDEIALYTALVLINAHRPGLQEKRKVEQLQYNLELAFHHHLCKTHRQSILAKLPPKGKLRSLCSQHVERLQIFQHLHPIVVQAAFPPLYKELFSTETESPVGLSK
In short: (§1)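 Luciferase signal, expressed relative to 0.2% DMSO vehicle as 100%, was the read-out after a 2-day compound exposure of CHO cells co-expressing a GAL4-RORγ LBD fusion and a GAL4-responsive reporter. EC50 values came from curve fitting, omitting points showing cytotoxicity.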

mouse RORγ = target: T2, mouse RORγ (Mus musculus, UniProt P51450); experiment: In vitro assay of inhibitory effect against RORγ transcriptional activity (GAL4-mRORγ LBD luciferase reporter gene assay in CHO cells); format: cell-based; conditions: for EC50: GAL4-mRORγ LBD / pG5-Luc in CHO cells, 2 days incubation; for mRORγ luciferase activity, %-of-control: value in parentheses beside the > EC50 bound, vehicle-control 0.2% DMSO alone = 100%
T2 construct: mouse RORγ, from Ile251 to Lys516; expressed in transfected cells; host or cells: CHO cells (Chinese hamster ovary), transient co-transfection with pG5-Luc
T2 sequence (P51450 251-516): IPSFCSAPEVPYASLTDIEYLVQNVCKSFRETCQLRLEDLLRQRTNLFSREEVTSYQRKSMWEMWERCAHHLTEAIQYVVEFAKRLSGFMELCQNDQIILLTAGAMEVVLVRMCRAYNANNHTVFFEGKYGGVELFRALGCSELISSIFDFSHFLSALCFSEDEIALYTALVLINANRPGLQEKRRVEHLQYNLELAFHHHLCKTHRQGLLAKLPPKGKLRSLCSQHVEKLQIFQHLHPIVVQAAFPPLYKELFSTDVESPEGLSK
In short: as §1

Row | EC50 (human RORγ) [nM] | EC50 (mouse RORγ) [nM] | hRORγ luciferase activity, %-of-control (human RORγ) | mRORγ luciferase activity, %-of-control (mouse RORγ) | Compound
1 | 1340 | 3100 |  |  | CC(C)C1=CN(CC2(C(=O)O)CC2)C(=O)N[C@]1(C)c1ccc(CCC(C)(C)C)c(Cl)c1 [Example 97]
2 | 13 | 18 |  |  | CC(C)C1=CN(CC2(C(=O)O)CC2)C(=O)N[C@@]1(C)c1ccc(CCC(C)(C)C)c(Cl)c1 [Example 98]
3 | 1510 | 2890 |  |  | CC(C)(C)CCc1ccc([C@@]2(C)NC(=O)N([C@H]3C[C@H](C(=O)O)C3)C=C2C2CCOCC2)cc1Cl [Example 99]
4 | 20 | 35 |  |  | CC(C)(C)CCc1ccc([C@]2(C)NC(=O)N([C@H]3C[C@H](C(=O)O)C3)C=C2C2CCOCC2)cc1Cl [Example 100]
5 | > 3200 | > 3200 | (65%) | (50%) | CC(C)C1=CN([C@H]2C[C@H](C(=O)O)C2)C(=O)N[C@]1(C)c1cc(Cl)c(CCC(C)(C)C)cc1F [Example 103]
6 | 50 | 31 |  |  | CC(C)C1=CN([C@H]2C[C@H](C(=O)O)C2)C(=O)N[C@@]1(C)c1cc(Cl)c(CCC(C)(C)C)cc1F [Example 104]
7 | 16 | 21 |  |  | CC(C)C1=CN([C@H]2C[C@H](CC(=O)O)C2)C(=O)N[C@@]1(C)c1ccc(CCC(C)(C)C)c(Cl)c1 [Example 108]
8 | > 8000 | > 8000 | (60%) | (67%) | CC(C)C1=CN(CCCC(=O)O)C(=O)N[C@]1(C)c1ccc(CCC2CCC2)c(Cl)c1 [Example 109]
9 | 11 | 10 |  |  | CC(C)C1=CN(CCCC(=O)O)C(=O)N[C@@]1(C)c1ccc(CCC2CCC2)c(Cl)c1 [Example 110]
10 | 405 | 481 |  |  | CC(C)C1=CN([C@H]2C[C@](C)(C(=O)O)C2)C(=O)N[C@]1(C)c1ccc(CCC(C)(C)C)c(Cl)c1 [Example 111]
11 | 21 | 19 |  |  | CC(C)C1=CN([C@H]2C[C@](C)(C(=O)O)C2)C(=O)N[C@@]1(C)c1ccc(CCC(C)(C)C)c(Cl)c1 [Example 112]
12 | 3030 | 1400 |  |  | CC(C)C1=CN(CCC(=O)O)C(=O)N[C@@]1(C)c1ccc2c(c1)CC(C)(C)C2 [Example 113]
13 | > 8000 | > 8000 | (110%) | (100%) | CC(C)C1=CN(CCC(=O)O)C(=O)N[C@]1(C)c1ccc(C2=CCC(C)(C)CC2)c(Cl)c1 [Example 115, 3-{(R)-4-[3-Chloro-4-(4,4-dimethyl-cyclohex-1-enyl)-phenyl]-5-isopropyl-4-methyl-2-oxo-3,4-dihydro-2H-pyrimidin-1-yl}-propionic Acid]
14 | 15 | 22 |  |  | CC(C)C1=CN(CCC(=O)O)C(=O)N[C@@]1(C)c1ccc(C2=CCC(C)(C)CC2)c(Cl)c1 [Example 116, 3-{(S)-4-[3-chloro-4-(4,4-dimethyl-cyclohex-1-enyl)-phenyl]-5-isopropyl-4-methyl-2-oxo-3,4-dihydro-2H-pyrimidin-1-yl}-propionic Acid]
15 | > 3200 | > 8000 | (106%) | (76%) | CC(C)C1=CN(CCC(=O)O)C(=O)N[C@]1(C)c1ccc(C2CCC(C)(C)CC2)c(Cl)c1 [Example 117]
16 | 19 | 17 |  |  | CC(C)C1=CN(CCC(=O)O)C(=O)N[C@@]1(C)c1ccc(C2CCC(C)(C)CC2)c(Cl)c1 [Example 118]
17 | > 8000 | > 8000 | (74%) | (76%) | CC(C)C1=CN(CCC(=O)O)C(=O)N[C@]1(C)c1ccc(CCC2CCCC2)c(Cl)c1 [Example 119]
18 | 61 | 14 |  |  | CC(C)C1=CN(CCC(=O)O)C(=O)N[C@@]1(C)c1ccc(CCC2CCCC2)c(Cl)c1 [Example 120]

Row | EC50 (human RORγ) [nM] | EC50 (mouse RORγ) [nM] | hRORγ luciferase activity, %-of-control (human RORγ) | mRORγ luciferase activity, %-of-control (mouse RORγ) | Compound
19 | > 8000 | > 8000 | (62%) | (85%) | CC(C)C1=CN(CCC(=O)O)C(=O)N[C@]1(C)c1ccc(CCC2CCC2)c(Cl)c1 [Example 121]
20 | 28 | 15 |  |  | CC(C)C1=CN(CCC(=O)O)C(=O)N[C@@]1(C)c1ccc(CCC2CCC2)c(Cl)c1 [Example 122]
21 | > 3200 | > 3200 | (109%) | (100%) | CC(C)C1=CN(CCC(=O)O)C(=O)N[C@]1(C)c1ccc(CCCC(C)(C)C)c(Cl)c1 [Example 123]
22 | > 512 | 30 | (54%) |  | CC(C)C1=CN(CCC(=O)O)C(=O)N[C@@]1(C)c1ccc(CCCC(C)(C)C)c(Cl)c1 [Example 124]
23 | < 32 | < 32 |  |  | CC(C)C1=CN(CCC(=O)O)C(=O)N[C@@]1(C)c1ccc(OCCC(C)(C)C)c(Cl)c1 [Example 125]
24 | 37 | 27 |  |  | CC(C)C1=CN(CCC(=O)O)C(=O)N[C@@]1(C)c1ccc(OCC(C)(C)C)c(Cl)c1 [Example 126]
25 | 2940 | 1950 |  |  | COCCOc1ccc([C@]2(C)NC(=O)N(CCC(=O)O)C=C2C(C)C)cc1Cl [Example 127]
26 | > 20000 | > 20000 | (66%) | (54%) | CC(C)C1=CN(CCC(=O)O)C(=O)N[C@]1(C)c1ccc(CCCC(F)(F)F)c(Cl)c1 [Example 128]
27 | 47 | < 32 |  |  | CC(C)C1=CN(CCC(=O)O)C(=O)N[C@@]1(C)c1ccc(CCCC(F)(F)F)c(Cl)c1 [Example 129]
28 | > 8000 | > 8000 | (77%) | (81%) | CC(C)C1=CN(CCC(=O)O)C(=O)N[C@]1(C)c1ccc(CCC2(C)CC2)c(Cl)c1 [Example 131]
29 | 18 | 14 |  |  | CC(C)C1=CN(CCC(=O)O)C(=O)N[C@@]1(C)c1ccc(CCC2(C)CC2)c(Cl)c1 [Example 132]
30 | > 8000 | > 8000 | (71%) | (88%) | CC(C)C1=CN(CCC(=O)O)C(=O)N[C@]1(C)c1ccc(C2=CCCCC2)c(Cl)c1 [Example 133]
31 | 70 | 27 |  |  | CC(C)C1=CN(CCC(=O)O)C(=O)N[C@@]1(C)c1ccc(C2=CCCCC2)c(Cl)c1 [Example 134]
32 | > 8000 | > 8000 | (90%) | (84%) | CC(C)C1=CN(CCC(=O)O)C(=O)N[C@]1(C)c1ccc(C2CCCCC2)c(Cl)c1 [Example 135]
33 | 94 | 49 |  |  | CC(C)C1=CN(CCC(=O)O)C(=O)N[C@@]1(C)c1ccc(C2CCCCC2)c(Cl)c1 [Example 136]
34 | 15 | 11 |  |  | CC(C)CC1=CN(CCC(=O)O)C(=O)N[C@@]1(C)c1ccc(CCC(C)(C)C)c(Cl)c1 [Example 137]
35 | > 8000 | > 8000 | (85%) | (96%) | CC(C)C1=CN(CCC(=O)O)C(=O)N[C@]1(C)c1ccc(CCC2CCCCC2)c(Cl)c1 [Example 138]
36 | > 512 | 27 | (110%) |  | CC(C)C1=CN(CCC(=O)O)C(=O)N[C@@]1(C)c1ccc(CCC2CCCCC2)c(Cl)c1 [Example 139]
